Data reported in ChEMBL document CHEMBL1154255 (2009).
≈ marks a conversion by molar mass, not a printed value.

Tests used:
Format in all cases: functional
[1] = system: KM-20L2; assay: Growth inhibition of human KM20L2 cells after 48 hrs by sulforhodamine B assay; settings: KM-20L2, 48 h
[2] = system: NCI-H460; assay: Growth inhibition of human NCI-H460 cells after 48 hrs by sulforhodamine B assay; settings: NCI-H460, 48 h
[3] = system: MCF7; assay: Growth inhibition of human MCF7 cells after 48 hrs by sulforhodamine B assay; settings: MCF7, 48 h
[4] = system: BXPC-3; assay: Growth inhibition of human BxPC3 cells after 48 hrs by sulforhodamine B assay; settings: BXPC-3, 48 h
[5] = system: SF-268; assay: Growth inhibition of human SF268 cells after 48 hrs by sulforhodamine B assay; settings: SF-268, 48 h
[6] = system: DU-145; assay: Growth inhibition of human DU145 cells after 48 hrs by sulforhodamine B assay; settings: DU-145, 48 h

| SMILES | GI50 [2] [µg/mL] | GI50 [3] [µg/mL] | GI50 [4] [µg/mL] | GI50 [6] [µg/mL] | GI50 [1] [µg/mL] | GI50 [5] [µg/mL] |
| --- | --- | --- | --- | --- | --- | --- |
| COc1cc(/C=C/c2ccc(OC)c(OP(=O)([O-])[O-])c2OP(=O)([O-])[O-])cc(OC)c1OP(=O)([O-])[O-].[Na+].[Na+].[Na+].[Na+].[Na+].[Na+] | > 10 | > 10 | > 10 | > 10 | > 10 | > 10 |
| COc1ccc(/C=C\c2cc(OC)cc(OC)c2)cc1 [8Z-3,4',5-TRIMETHOXYSTILBENE] | 0.0028 (≈ 0.0104 µM) |  | 0.0034 (≈ 0.0126 µM) | 0.0054 (≈ 0.02 µM) |  | 0.0044 (≈ 0.0163 µM) |
| Oc1ccc(/C=C\c2cc(O)cc(O)c2)cc1 [CIS-RESVERATROL] |  |  |  |  | 22 (≈ 96.4 µM) | 5 (≈ 21.9 µM) |
| COc1ccc(/C=C/c2cc(OC)cc(OC)c2)cc1 [TRISMETHOXYRESVERATROL] | 0.62 (≈ 2.29 µM) |  | 0.35 (≈ 1.29 µM) | 1.5 (≈ 5.55 µM) |  | 0.56 (≈ 2.07 µM) |

Now from value to compound, other results behind:

| GI50 [2] [µg/mL] | GI50 [3] [µg/mL] | GI50 [4] [µg/mL] | GI50 [6] [µg/mL] | SMILES | GI50 [1] [µg/mL] | GI50 [5] [µg/mL] |
| --- | --- | --- | --- | --- | --- | --- |
| > 10 | 5.5 (≈ 17.3 µM) | > 10 | > 10 | COc1cc(/C=C/c2ccc(OC)c(O)c2O)cc(OC)c1O | > 10 | > 10 |
| 4.9 (≈ 16.2 µM) |  | 5 (≈ 16.5 µM) | 6.3 (≈ 20.8 µM) | COc1ccc(/C=C/c2cc(OC)c(O)c(OC)c2)cc1O |  |  |
| 0.0006 (≈ 0.0019 µM) |  | 0.39 (≈ 1.23 µM) | 0.0008 (≈ 0.00253 µM) | COc1ccc(/C=C\c2cc(OC)c(OC)c(OC)c2)cc1O [COMBRETASTATIN A4] | 0.34 (≈ 1.07 µM) | > 0.01 |
| 0.038 (≈ 0.12 µM) |  | 3.9 (≈ 12.3 µM) | 0.037 (≈ 0.117 µM) | COc1ccc(/C=C/c2cc(OC)c(OC)c(OC)c2)cc1O [E-COMBRETASTATIN A-4] |  |  |
